The text below walks through data of PMC5642145, “Impact of the structures of macrocyclic Michael acceptors on covalent proteasome inhibition” (Chemical Science, 2017).

Where two headings read alike, the source gives them in different places.

For assay [1], the target named is T1, β5 subunit of the human constitutive 20S proteasome (Homo sapiens, UniProt P20618+P28074).
T1 construct: human erythrocyte 20S; purchased R&D Systems, Inc; host or cells: human erythrocytes (native, purified from tissue)
Put plainly: In vitro β5 proteasome inhibitory activity and kinetic constants (Suc-LLVY-AMC, chymotrypsin-like activity). It counts as biochemical. To be noted: for K′i (apparent β5 subunit inhibitory activity): human erythrocyte 20S proteasome, chymotrypsin-like activity, 37 °C; for kinact/KI: read-out: k assoc (k2/Ki). The source says:
First, the effect of modifying the macrocycle was investigated for 1–3 by analyzing the inhibitory activity of the β5 subunit of the human constitutive 20S proteasome. […] The k 2/K i ratio represents the second-order rate constant for the reaction of the inhibitor with the target (k assoc), and it indicates the overall inhibitory potency of the inhibitor.
4) Evaluation of in vitro β5 proteasome inhibitory activity and determination of kinetic […]
In vitro proteasome inhibitory activity was measured on 96-well microtiter plates using human erythrocyte 20S proteasome (R&D Systems, Inc.) with the AK-740 Assay Kit for Drug Discovery (Biomol). Reactions were performed at 37 °C in 100 μ L volu mes containing a serial dilution of test samples, 2 μ g/mL 20S proteasome, and 100 μM Suc-L LV Y -AMC for assaying chymotrypsin-like activity, according to the manufacture’s instructions.
Fluorescence was monitored with an infinite M200 microplate reader (Tecan) equipped with 360 nm excitation and […]
The observed rate constant for inhibition, kobs, at each concentration was determined fro m the slope of a semi-logarithmic plot of inhibition versus […]
equation, k obs = k 2[I]/(K i+[I]), to obtain values for Ki and k2. The k2/Ki ratio represents the second -order rate constant for the reaction of the inhibitor with the target. S7)

The test system of assay [2] is human myeloma Amo-1 cells. Put plainly: Anti-proliferation activity against Amo-1 cells (CCK-8). It counts as cell-based. How it is done:
5) Evaluation of anti -proliferation activity against Amo- 1cells
Cell proliferation assays were performed using the Cell Counting Kit-8 (CCK-8) (Dojindo, CK04) according to the manufacturer’s protocol. In brief, Amo- 1 cells were cultured in RPMI1640 medium containing 10% FBS and 1% penicillin -strepto myc in.
After culturing for 24 h at 37 °C under atmosphere of 5% CO2, the cells were treated with a solution of the compound in DMSO (1 µL) at 37 °C for 72 h. A solution of the CCK-8 (10 µL) was then added to each well and the cells were incubated at 37 °C for 3 h. The absorbance at 450 nm was measured using an Infinite M200 PRO multimode microplate reader (Tecan). The data points were calculated from the average (±standard deviation) of three assays […]
(IC 50) were calculated from curves constructed by plotting cell proliferation (%) versus the log of compound […]
(1 picture or pasted object on this page, not shown here)

[3] abbreviates: from fit kobs = k2[I]/(Ki + [I]).
[4] abbreviates: second-order rate constant, k2/Ki ratio.
Setting [5] is: AMO1, Amo-1 cells, 72 h, CCK-8, read-out: IC50 (cell proliferation).

For the compound `CC(C)[C@H](NC(=O)N[C@H](C(=O)N[C@H]1/C=C/CCNC(=O)/C=C/[C@H](C(C)C)NC1=O)C(C)C)C(=O)O` [Syringolin A (1), Syringolin A, reference compound], the “k 2” value in assay [1] (as printed in text in s^–1) was 3.91 × 10^–3 s^–1; in assay [1] (setting [3]), 0.00391 s⁻¹. Further, the “K′i (apparent β5 subunit inhibitory activity)” value in assay [1] was found to be 170 nM. For the same compound, the kinact/KI in assay [1] was 1770 M⁻¹ s⁻¹.

In general, Ki refers to a measure of affinity in units of concentration, obtained from inhibition or displacement. Consider `CCCCCCCCCC(=O)N[C@@H](Cc1ccccc1)C(=O)N[C@H]1CCCNC(=O)/C=C/[C@H](C(C)C)NC1=O` [analogue 9], for which, in assay [1] (setting [3]), the inhibition constant (Ki) was determined as 547 nM and the k 2 was determined as 0.00365 s⁻¹. The “K′i (apparent β5 subunit inhibitory activity)” value in assay [1] is on record as 48.2 nM. The kinact/KI in assay [1] (setting [4]) was 6670 M⁻¹ s⁻¹.

With `CCCCCCCCCC(=O)N[C@@H](Cc1ccccc1)C(=O)N[C@H]1CC/C=C/CNC(=O)/C=C/[C@H](C(C)C)NC1=O` [analogue 10], in assay [1] (setting [3]), the Ki was determined as 527 nM and the k 2 was 0.00134 s⁻¹. Besides, the “K′i (apparent β5 subunit inhibitory activity)” value in assay [1] is recorded as 79.2 nM. In addition, the kinact/KI in assay [1] (setting [4]) worked out at 2550 M⁻¹ s⁻¹.

`CCCCCCCCCC(=O)N[C@@H](Cc1ccc(-c2ccccc2)cc1)C(=O)N[C@H]1/C=C/CNC(=O)/C=C/[C@H](C(C)C)NC1=O` [analogue 14]: in assay [1] (setting [3]), the Ki came out at 42.2 nM and the k 2 came to 0.00428 s⁻¹. The “K′i (apparent β5 subunit inhibitory activity)” value in assay [1] worked out at 0.77 nM. In addition, in assay [1] (setting [4]), the “k assoc (k2/Ki)” value amounted to 101422 s^–1 M^–1 and the kinact/KI is 101000 M⁻¹ s⁻¹. The IC50 in assay [2] (setting [5]) came to 12.1 nM.

For the compound `CCCCCCCCCC(=O)N[C@@H](Cc1ccccc1)C(=O)N[C@H]1CCCCCNC(=O)/C=C/[C@H](C(C)C)NC1=O` [analogue 12], in assay [1] (setting [3]), the Ki was 9090 nM and the k 2 came out at 0.00203 s⁻¹. Also, in assay [1], the “K′i (apparent β5 subunit inhibitory activity)” value was 402 nM. Further, the kinact/KI in assay [1] (setting [4]) came out at 224 M⁻¹ s⁻¹.

Turning to `CCCCCCCCCC(=O)N[C@@H](Cc1ccccc1)C(=O)N[C@H]1/C=C/CCNC(=O)/C=C/[C@H](C(C)C)NC1=O` [analogue 4], the IC50 in assay [2] (AMO1, 72 h, read-out: IC50 (cell proliferation)) amounted to 4.33 ± 1.6 nM.

Regarding `CCCCCCCCCC(=O)N[C@@H](Cc1ccccc1)C(=O)N[C@H]1/C=C/CNC(=O)/C=C/[C@H](C(C)C)NC1=O` [analogue 8], the “K i, decrease in affinity relative to 4” value in assay [1] (decrease relative to 4) came out at 6.3 fold. Further, in assay [1] (setting [3]), the inhibition constant (Ki) turned out to be 432 nM and the k 2 came to 0.00551 s⁻¹. Moreover, the “k 2 relative to 4” value in assay [1] (greater than that of the 12-membered 4) is reported as 1.29 fold. Moreover, the “K′i (apparent β5 subunit inhibitory activity)” value in assay [1] amounted to 20.6 nM. The kinact/KI in assay [1] (setting [4]) was determined as 12800 M⁻¹ s⁻¹. In addition, the IC50 in assay [2] (setting [5]) was found to be 26.3 ± 9.3 nM.

Regarding `CCCCCCCCCC(=O)N[C@@H](Cc1ccccc1)C(=O)N[C@H]1C/C=C/CCNC(=O)/C=C/[C@H](C(C)C)NC1=O` [analogue 11], in assay [1] (setting [3]), the inhibitory constant (Ki) came out at 1230 nM and the k 2 amounted to 0.000875 s⁻¹. Also, the “K′i (apparent β5 subunit inhibitory activity)” value in assay [1] was found to be 320 nM. Moreover, the kinact/KI in assay [1] (setting [4]) worked out at 713 M⁻¹ s⁻¹.

Turning to `C=CC[C@H](NC(=O)[C@H](Cc1ccccc1)NC(=O)CCCCCCCCC)C(=O)N[C@H](/C=C/C(=O)NC)C(C)C` [analogue 13], in assay [1], the “K′i (apparent β5 subunit inhibitory activity)” value was greater than 1000 nM. The “inhibitory activity” value in assay [1] (β5 subunit) is on record as “no inhibitory activity”.

In the case of `CC(C)[C@H](NC(=O)N[C@H](C(=O)N[C@H]1C/C=C/CNC(=O)/C=C/[C@H](C(C)C)NC1=O)C(C)C)C(=O)O` [Isosyringolin A (3), Isosyringolin A], in assay [1] (setting [3]), the k 2 is 0.00339 s⁻¹. In assay [1], the “K′i (apparent β5 subunit inhibitory activity)” value is 590 nM and the kinact/KI worked out at 166 M⁻¹ s⁻¹.
